In the Deep4Chem optical property database:
Values joined by “and” are separate entries in the source; they are usually repeats but may differ in a detail not shown here. Equal entries are not always repeated. Each block holds one compound with its values, some of them ahead of it.

Test: solvent given as SMILES
[1] = in O=P(c1ccccc1)(c1ccccc1)c1ccccc1Oc1ccccc1P(=O)(c1ccccc1)c1ccccc1

SMILES: c1ccc(-c2nc(-c3ccccc3)nc(-c3ccc(-n4c5ccc(-n6c7ccccc7c7ccccc76)cc5c5cc(-n6c7ccccc7c7ccccc76)ccc54)cc3)n2)cc1
emission maximum (in Cc1ccccc1): 458 nm
emission maximum [1]: 475 nm and 450.31 nm

SMILES: COc1cc(/C=C/c2nc3ccccc3s2)c(OC)cc1/C=C/c1nc(C)nc(/C=C/c2cc(OC)c(/C=C/c3nc4ccccc4s3)cc2OC)n1
emission maximum (in C1CCOC1): 490 nm
emission maximum (in CC#N): 505 nm
emission maximum (in ClC(Cl)Cl): 500 nm
emission maximum (in ClCCl): 502 nm

SMILES: COc1ccc(/C=C/c2nc(N3CCOCC3)c3c([n+]2[O-])CCCC3)cc1
emission maximum (in ClCCl): 533 nm

SMILES: c1cc2ccc1-c1ccc(cc1)-c1ccc(s1)-c1ccc(cc1)-c1ccc(cc1)-c1ccc(s1)-c1ccc(cc1)-c1ccc(cc1)-c1ccc-2s1
emission maximum (in C1CCOC1): 523 nm

SMILES: COc1ccc(C2=[N+]3C(=Nc4c(-c5ccccc5-c5ccc(C(C)(C)C)cc5)cc(-c5ccc(OC)cc5)n4[B-]3(F)F)c3c2c2cc(C(C)(C)C)ccc2c2ccccc32)cc1
emission maximum (in Cc1ccccc1): 723 nm

SMILES: c1cc2c3cc1c1ccc4c(c1)c1cc(ccc1[C@]15OCCO[C@]41OCCO5)c1ccc4c(c1)c1cc(ccc1[C@]15OCCO[C@]41OCCO5)c1ccc(c3c1)[C@]13OCCO[C@]21OCCO3
emission maximum (in Cc1ccccc1): 343 nm

SMILES: FC(F)(F)c1ccc(-n2c(-c3ccc(N(c4ccc(-c5ccc(N(c6ccc(-c7nc8c9ccccc9c9ccccc9c8n7-c7ccc(C(F)(F)F)cc7)cc6)c6ccc(-c7nc8c9ccccc9c9ccccc9c8n7-c7ccc(C(F)(F)F)cc7)cc6)cc5)cc4)c4ccc(-c5nc6c7ccccc7c7ccccc7c6n5-c5ccc(C(F)(F)F)cc5)cc4)cc3)nc3c4ccccc4c4ccccc4c32)cc1
emission maximum (in ClCCl): 442 nm

SMILES: CCCCc1cc2cccc3cc(CCCC)c4cc(-c5cc6[b-]7c(c5)c(CCCC)cc5cccc(cc6CCCC)[n+]75)cc1[b-]4[n+]23
emission maximum (in C1CCCCC1): 550 nm

SMILES: CCN(CC)c1ccc2cc(/C=C/C(O)=C3\CC/C(=C\c4cc5ccc(N(CC)CC)cc5oc4=O)C3=O)c(=O)oc2c1
emission maximum (in C1COCCO1): 581 nm
emission maximum (in CC#N): 637 nm
emission maximum (in CC(C)=O): 613 nm
emission maximum (in CCOC(C)=O): 589 nm
emission maximum (in CN(C)C=O): 638 nm
emission maximum (in CS(C)=O): 639 nm
emission maximum (in Cc1ccccc1): 570 nm
emission maximum (in ClC(Cl)Cl): 605 nm

SMILES: F[B-]1(F)Oc2ccccc2-c2cc(-n3c4ccc(-c5ccccc5)cc4c4cc(-c5ccccc5)ccc43)cc[n+]21
emission maximum (in Cc1ccccc1): 471 nm
emission maximum [1]: 496 nm

SMILES: COc1ccc(-n2nc(C(=O)N3CCCC3)c(N3CCCC3)n2)cc1
emission maximum (in CC#N): 412 nm
emission maximum (in CCCCCC): 405 nm
emission maximum (in CCO): 410 nm
emission maximum (in CN(C)C=O): 396 nm
emission maximum (in ClC(Cl)Cl): 411 nm

SMILES: Cc1ccc2nnn(-c3c(C#N)c4c(N)ncnc4n3[C@H]3C[C@H](O)[C@@H](CO)O3)c2c1
emission maximum (in CO): 419 nm

SMILES: O=P1(c2ccccc2)C2=C(c3ccccc31)[Si](c1ccccc1)(c1ccccc1)c1cc(N(c3ccccc3)c3ccccc3)ccc12 (centres undefined)
emission maximum (in CC#N): 629 nm
emission maximum (in CO): 640 nm
emission maximum (in Cc1ccccc1): 558 nm

SMILES: COc1ccc2n1[B-](F)(F)[N+]1=C(c3ccccc3)C=CC1=C2c1ccc(C)cc1
emission maximum (in C1CCCCC1): 553 nm
emission maximum (in C1CCOC1): 555 nm
emission maximum (in C1COCCO1): 556 nm
emission maximum (in CCOC(C)=O): 552 nm
emission maximum (in CO): 550 nm
emission maximum (in Cc1ccccc1): 558 nm
emission maximum (in ClC(Cl)Cl): 557 nm

SMILES: COc1cc(OC)cc(C2=[O+][B-](F)(F)OC(c3cccs3)=C2)c1
emission maximum (in CCCCCC): 434.88 nm
emission maximum (in Cc1ccccc1): 502.25 nm
emission maximum (in ClCCl): 567 nm

SMILES: CCCCCCc1ccc2c(/C=N/c3ccc(/N=C/c4c(O)ccc5cc(CCCCCC)ccc45)cc3)c(O)ccc2c1
emission maximum (in C1CCOC1): 542 nm
emission maximum (in CC#N): 539 nm
emission maximum (in Cc1ccccc1): 546 nm
emission maximum (in ClCCl): 546 nm

SMILES: OC1(c2ccc(-c3cccs3)s2)CCCCC1
emission maximum (in C1CCOC1): 458 nm
emission maximum (in CC#N): 466 nm
emission maximum (in CCCCCC): 465 nm
emission maximum (in CCO): 465 nm
emission maximum (in OCCOCCO): 447 nm
emission maximum (in c1ccncc1): 475 nm

SMILES: CCCCCCCCn1nnc(-c2ccc(C#Cc3ccc(C#Cc4ccc(-c5nnn(CCCCCCCC)n5)cc4)c4nc5c6ccccc6c6ccccc6c5nc34)cc2)n1
emission maximum (in C1CCOC1): 495 nm
emission maximum (in Cc1ccccc1): 488 nm
emission maximum (in ClCCl): 502 nm

SMILES: c1ccc2cc(-n3c4ccccc4c4ccccc43)ccc2c1
emission maximum (in C1CCCCC1): 362 nm
emission maximum (in C1CCOC1): 374 nm
emission maximum (in CC#N): 388 nm
emission maximum (in CCO): 379 nm
emission maximum (in CCOC(C)=O): 372 nm
emission maximum (in CCOCC): 368 nm
emission maximum (in CO): 382 nm
emission maximum (in Cc1ccccc1): 364 nm
emission maximum (in ClC(Cl)Cl): 376 nm

SMILES: N#Cc1cc(-n2c3ccccc3c3cccnc32)c(-n2c3ccccc3c3cccnc32)cc1C#N
emission maximum (in CC#N): 504.42 nm
emission maximum (in CCCCCC): 386.98 nm
emission maximum (in Cc1ccccc1): 417.44 nm
emission maximum (in ClCCl): 468.37 nm
emission maximum (in c1cc(-n2c3ccccc3c3ccccc32)cc(-n2c3ccccc3c3ccccc32)c1): 441.06 nm

SMILES: Cc1ccc2[nH]c(-c3ccc(-c4ccc(-c5ccc(-c6nc7cc(C)ccc7[nH]6)cc5)c(F)c4)cc3)nc2c1
emission maximum (in CN(C)C=O): 423 nm

SMILES: O=C1c2cccc3cc4ccccc4c(c23)C(=O)N1Cc1ccccn1
emission maximum (in C1CCOC1): 485 nm
emission maximum (in CCCCCC): 465 nm
emission maximum (in CCO): 500 nm
emission maximum (in Cc1ccccc1): 483 nm
emission maximum (in ClCCl): 490 nm

SMILES: COc1cc2c(cc1OC)C1=C[C@H](c3ccccc3)C3(C(C#N)=C(C#N)N1CC2)c1cc(Br)ccc1-c1ccc(Br)cc13
emission maximum (in ClCCl): 403 nm

Next, values leading:

emission maximum (in CC#N): 410 nm
emission maximum (in CO): 450 nm
emission maximum (in CS(C)=O): 420 nm
emission maximum (in ClC(Cl)Cl): 410 nm
SMILES: O=C1C=Cc2cc3ccccc3c(=O)n21

emission maximum (in C1COCCO1): 369 nm
emission maximum (in CC#N): 365.4 nm
emission maximum (in CCCCCC): 369 nm
emission maximum (in CCCCO): 370 nm
emission maximum (in CCO): 371 nm
emission maximum (in CCOC(C)=O): 367 nm
emission maximum (in CO): 368 nm
emission maximum (in ClC(Cl)Cl): 369 nm
emission maximum (in ClCCl): 368 nm
emission maximum (in c1ccccc1): 365 nm
SMILES: COc1cccc(-n2c(-c3ccc(F)cc3)nc(C)c2C)c1

emission maximum (in ClCCl): 440 nm
SMILES: O=C1c2cccc3c(C#CC#Cc4ccc5c6c(cccc46)C(=O)N(c4ccccc4)C5=O)ccc(c23)C(=O)N1c1ccccc1

emission maximum (in ClCCl): 480 nm
SMILES: CCCc1ccc(C#Cc2ccc3nc4ccc(C#Cc5ccc(CCC)cc5)cn4c(=O)c3c2)cc1

emission maximum (in CC(C)O): 557 nm
emission maximum (in CCO): 551 nm
emission maximum (in CO): 545 nm
emission maximum (in O): 534 nm
SMILES: O=C([O-])c1ccccc1-c1c2cc(I)c(=O)c(I)c-2oc2c(I)c([O-])c(I)cc12

emission maximum (in CC#N): 610 nm
SMILES: Cc1ccc(S(=O)(=O)Nc2c(/C=C/c3ccccc3)sc(-c3ccc(N(C)C)s3)c2-c2cccnc2)cc1

emission maximum (in CS(C)=O): 337 nm
SMILES: O=C1CC(=O)Nc2ccccc2N1

emission maximum (in O): 367 nm
SMILES: CC(C)(C)c1cccc2c(O)cccc12

emission maximum (in ClCCl): 492 nm
SMILES: COc1ccc(C#Cc2c3ccccc3c(C#Cc3ccc(OC)cc3)c3ccccc23)cc1

emission maximum (in CC1CCCCC1): 492 nm
emission maximum (in CC#N): 510 nm
SMILES: C(=C\c1c2ccccc2cc2ccccc12)/c1ccc2ccccc2n1

emission maximum (in CCO): 403 nm
SMILES: C#Cc1ccc2ccc3oc(=O)cc(C)c3c2c1

emission maximum (in CC#N): 557 nm
SMILES: COc1ccc(-c2csc(/C(C#N)=C/c3ccc(Cl)cc3Cl)n2)cc1

emission maximum (in ClC(Cl)Cl): 516.4 nm
SMILES: CC1=CC(C)=[N+]2C1=C(c1ccc(I)cc1)c1c(C)cc(C)n1[B-]21Oc2ccc3ccccc3c2-c2c(ccc3ccccc23)O1
